Results from ChEMBL document CHEMBL1158944, “Chemistry of Sponges, XII. A New Dihydric Phenol from the Sponge Fasciospongia sp” (J Nat Prod, 1991).
Active and inactive are the calls of the source. The rule behind the calls is not given here.

Legend:
Bacillus subtilis = test: Antimicrobial activity against Bacillus subtilis at 100 ug/ml; type: functional, organism-based
Staphylococcus aureus = test: Antimicrobial activity against Staphylococcus aureus at 100 ug/ml; type: functional, organism-based

## COc1cc(C/C=C(/C)CC/C=C(\C)CC/C=C(\C)CCC=C(C)C)cc(O)c1O
Bacillus subtilis
  Activity: Active
Staphylococcus aureus
  Activity: Active
